The text below walks through data of the SangsterLogP compilation.

A short description of the first data set: method code SF, from DOI: 10.1111/j.2042-7158.1992.tb14369.x, PMID: 1350635. Conditions: pH 13.0.
Take `CC(C)(C)NCC(O)COc1ccccc1C#N` (configuration not stated): the logD was determined as 1.97.

A short description of the next data set: method code SF-AS, from DOI: 10.1111/j.2042-7158.1992.tb14369.x, PMID: 1350635. As to conditions: pH 13.0.
In turn, `CC(C)NCC(O)COc1ccccc1C1CC2CCC1C2` (configuration not stated) came in with a logD of 4.17. For the molecule `Cc1cc2c(OCC(O)CNC(C)C)cccc2[nH]1` (configuration not stated), the logD worked out at 2.3. With `CC(C)NC[C@H](O)COc1ccc(OCCOCCc2ccc(F)cc2)cc1`, the log distribution coefficient (logD) was found to be 3.7. On the same count and under the same terms, as for `COc1ccccc1OCC(O)CNC(C)C` (configuration not stated), the figure is 1.69. For `CC(C)NCC(O)COc1ccc(COCCOC(C)C)cc1` (configuration not stated), the logD is 1.87.

Molecule `C#CCOc1ccccc1OCC(O)CNC(C)(C)C` (configuration not stated) showed a logD of 2.32.

Molecule `CNC(=O)COc1ccccc1OCC(O)CNC(C)(C)C` (configuration not stated) came in with a logD of 1.36. As to `CC(C)NCC(O)COc1ccc(CCOCC2CC2)cc1` (configuration not stated), the logD stood at 2.81. Still for that read-out and setting: as for `CC(C)NCC(O)COc1ccccc1C1CC1` (configuration not stated), the figure is 3.07; as for `CC(=O)c1cc2cccc(OCC(O)CNC(C)C)c2o1` (configuration not stated), 2.02; as for `CC(=O)Nc1ccc(OCC(O)CNC(C)C)c(C(C)=O)c1` (configuration not stated), 0.94.
